Our source for the IC50 values is PMC3721678 (Biochemistry, 2010).

Test [1] deals with T1, Helix pomatia agglutinin (HPA) (Helix pomatia, UniProt Q2F1K8).
T1 sequence (Q2F1K8 20-121): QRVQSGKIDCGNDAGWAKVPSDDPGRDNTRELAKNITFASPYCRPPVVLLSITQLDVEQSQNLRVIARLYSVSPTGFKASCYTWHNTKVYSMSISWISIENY
The test is described as follows: SPR competition assay. Type of test: binding. Particulars: 8 µM mIgA1κ as competed analyte, 25 °C; competitive.

Test [2] concerns Helix aspersa agglutinin (HAA). Kind of test: SPR competition assay. In kind it is binding, Cornu aspersum. Particulars: 8 µM mIgA1κ as competed analyte, 25 °C; competitive.

Each structure is given as a SMILES string.

As usually defined, the IC50 is the concentration that gives 50% inhibition.

Take `CC(=O)N[C@H]1C(O)O[C@H](CO)[C@H](O)[C@@H]1O` (some centres unmarked) [GalNAc]: the IC50 was found to be 220 ± 20 µM in test [1] and 81 ± 8 µM in test [2].
